Among the data in US20240360114A1 (SIRONAX LTD., priority 2021, published 2024) are EC50 values, retold here.

The subject of one assay is HT-1080 cells. The experiment in a line: HT-1080 cell viability assay (ferroptosis induced by RSL3, Cell Titer-Glo). Format: cell-based. The note with it: Homo sapiens, HT-1080, 20 h, ferroptosis inducer RSL3, 20 hours, ferroptosis inhibitory activity, Table 2. The gist of the method: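 Cells seeded overnight, then co-treated with RSL3 and compound (3-fold, 10-point dilution, top 1.1 μM) for 20 hours. Viability by CellTiter-Glo luminescence, normalized to untreated controls; EC50 from sigmoidal non-linear regression.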
On the technique in general: Cellular ATP, detected with luciferase, serves as a proxy for viable cell number.
One may read the EC50 as the concentration needed to bring the measured effect to its halfway point. High values mean a need for much substance, low ones an effect from little substance. As for `N[C@H]1CC[C@H](CNc2ccc3c(c2)CCC3)CC1` [Compound 308, N-(((1r,4r)-4-aminocyclohexyl)methyl)-2,3-dihydro-1H-inden-5-amine], the EC50 lay in the range of 0.1 to 100 nM.

For the compound `N[C@H]1CC[C@@H](CNc2ccc3c(c2)CCCC3)CC1` [Compound 309, N-(((1r,4r)-4-aminocyclohexyl)methyl)-5,6,7,8-tetrahydronaphthalen-2-amine], the EC50 lay within 0.1 to 100 nM.

`N[C@H]1CC[C@H](CNc2ccc3c(c2)CCCC3)CC1` [Compound 310, N-(((1r,4r)-4-aminocyclohexyl)methyl)-5,6,7,8-tetrahydronaphthalen-2-amine] showed an EC50 of 0.1 to 100 nM. Turning to `Cc1cc(NC2CCC(CN)CC2)cc(C)c1C` (centres unmarked) [Compound 312, N-(4-(aminomethyl)cyclohexyl)-3,4,5-trimethylaniline], the EC50 was 0.1 to 100 nM. In turn, `Cc1cc(NC[C@H]2CC[C@H](N)CC2)cc(C)c1C` [Compound 314, N-(((1r,4r)-4-aminocyclohexyl)methyl)-3,4,5-trimethylaniline] registered an EC50 of 0.1 to 100 nM. In the case of `CCCc1ccc(NC[C@H]2CC[C@H](N)CC2)cc1` [Compound 315, N-(((1r,4r)-4-aminocyclohexyl)methyl)-4-propylaniline], the EC50 fell in the range of 0.1 to 100 nM.

As for `Cc1ccc(NC[C@H]2CC[C@H](N)CC2)cc1C` [Compound 316, N-(((1r,4r)-4-aminocyclohexyl)methyl)-3,4-dimethylaniline], the EC50 lay in the range of 0.1 to 100 nM. The same measure, in the same setting: for `CC(C)(C)c1ccc(NC2CCC(NCCCO)CC2)cc1` (centres unmarked) [Compound 317, 3-((4-((4-(tert-butyl)phenyl)amino)cyclohexyl)amino)propan-1-ol] the value was 0.1 to 100 nM; for `CN(C)CCOC1CCC(Nc2ccc(C(C)(C)C)cc2)CC1` (centres unmarked) [Compound 319A, 4-(tert-butyl)-N-(4-(2-(dimethylamino)ethoxy)cyclohexyl)aniline], 100 to 1000 nM; for `CCOCC(C)(C)c1ccc(NC2CCC(N)CC2)cc1` (centres unmarked) [Compound 320A, N1-(4-(1-ethoxy-2-methylpropan-2-yl)phenyl)cyclohexane-1,4-diamine], 100 to 1000 nM. Compound `CC(C)(C)c1ccc(NC2CCC(NCCCCO)CC2)cc1` (centres unmarked) [Compound 321, 4-((4-((4-(tert-butyl)phenyl)amino)cyclohexyl)amino) butan-1-ol] returned an EC50 of 100 to 1000 nM. `CC(C)(C)c1ccc(NC2CCC(CNCCO)CC2)cc1` (centres unmarked) [Compound 322, 2-(((4-((4-(tert-butyl)phenyl)amino)cyclohexyl)methyl)amino)ethan-1-ol] registered an EC50 of 0.1 to 100 nM. Compound `CC(C)(C)c1ccc(NC[C@H]2CC[C@H](NCCO)CC2)cc1` [Compound 323, 2-(((1r,4r)-4-(((4-(tert-butyl)phenyl)amino)methyl)cyclohexyl)amino)ethan-1-ol] gave an EC50 of 0.1 to 100 nM. In turn, `CC1(C)Cc2ccc(NC3CCC(N)CC3)cc2C1` (centres unmarked) [Compound 324, N-(2,2-dimethyl-2,3-dihydro-1H-inden-5-yl)cyclohexane-1,4-diamine] displayed an EC50 of 0.1 to 100 nM. Still for that read-out and setting: for `CC1(C)CC(C)(C)c2cc(NC3CCC(N)CC3)ccc21` (centres unmarked) [Compound 325A, N1-(1,1,3,3-tetramethyl-2,3-dihydro-1H-inden-5-yl)cyclohexane-1,4-diamine] the value was 0.1 to 100 nM; for `CC(C)(C)c1ccc(NC2CCC(CCCCCN)CC2)cc1` (centres unmarked) [Compound 326, N-(4-(5-aminopentyl)cyclohexyl)-4-(tert-butyl)aniline], 0.1 to 100 nM. `CC(C)(C)c1ccc(NC2CCC(N)C(O)C2)cc1` (centres unmarked) [Compound 327, 2-amino-5-((4-(tert-butyl)phenyl)amino)cyclohexan-1-ol]: the EC50 fell in the range of 100 to 1000 nM.

The compound `CC(C)(C)c1ccc(NCC2CCC(N)C2)cc1` (centres unmarked) [Compound 328, N-((3-aminocyclopentyl)methyl)-4-(tert-butyl)aniline] came in with an EC50 of 0.1 to 100 nM. `CCc1cc(NC2CCC(N)CC2)ccc1C(C)(C)C` (centres unmarked) [Compound 329, 1-N-(4-(tert-butyl)-3-ethylphenyl)cyclohexane-1,4-diamine] displayed an EC50 of 0.1 to 100 nM. On the same count and under the same terms, for `CC1(C)CCc2cc(NC3CCC(N)CC3)ccc21` (centres unmarked) [Compound 330A, N1-(1,1-dimethyl-2,3-dihydro-1H-inden-5-yl)cyclohexane-1,4-diamine] the value was 0.1 to 100 nM; for `Cc1cc(C)cc(NC2CCC(N)CC2)c1` (centres unmarked) [Compound 331, N1-(3,5-dimethylphenyl)cyclohexane-1,4-diamine], 100 to 1000 nM. Compound `CCC(C)(C)c1ccc(NC2CC(CN)C2)cc1` (centres unmarked) [Compound 333, N-(3-(aminomethyl)cyclobutyl)-4-(tert-pentyl)aniline] displayed an EC50 of 0.1 to 100 nM.

In turn, `CC1CCC(Nc2ccc(C(C)(C)C)cc2)CC1` (centres unmarked) [Compound 334, 4-(tert-butyl)-N-(4-methylcyclohexyl)aniline] came in with an EC50 of 100 to 1000 nM. For `CC1(C)CCCc2cc(NC3CCC(N)CC3)ccc21` (centres unmarked) [Compound 337A, 1-N-(5,5-dimethyl-5,6,7,8-tetrahydronaphthalen-2-yl)cyclohexane-1,4-diamine], the concentration giving a half-maximal response (EC50) fell in the range of 0.1 to 100 nM. Same read-out and setting: for `CC1(C)CCC(C)(C)c2cc(NC[C@H]3CC[C@H](N)CC3)ccc21` [Compound 338, N-(((1r,4r)-4-aminocyclohexyl)methyl)-5,5,8,8-tetramethyl-5,6,7,8-tetrahydronaphthalen-2-amine] the value was 0.1 to 100 nM; for `CC1(CN)CCC(Nc2ccc(C(C)(C)C)cc2)CC1` (centres unmarked) [Compound 339, N-(4-(aminomethyl)-4-methylcyclohexyl)-4-(tert-butyl)aniline], 0.1 to 100 nM. Same read-out and setting: for `CC(C)(C)c1ccc(NCC2CCC(CN)C2)cc1` (centres unmarked) [Compound 340, N-((3-(aminomethyl)cyclopentyl)methyl)-4-(tert-butyl)aniline] the value was 0.1 to 100 nM. Consider `C[C@@H](O)[C@H](N)CNC1CCC(Nc2ccc(C(C)(C)C)cc2)CC1` (stereo partly drawn) [Compound 341, (2R, 3R)-3-amino-4-((4-((4-(tert-butyl)phenyl)amino)cyclohexyl)amino) butan-2-ol], for which the EC50 was in the range of 0.1 to 100 nM. Still for that read-out and setting: then `CCC(C)(C)c1ccc(NC[C@H]2CC[C@H](N)CC2)cc1` [Compound 342, N-(((1r,4r)-4-aminocyclohexyl)methyl)-4-(tert-pentyl)aniline], with 0.1 to 100 nM. On the same count and under the same terms, then `CN1CC(C)(C)c2ccc(NC3CCC(N)CC3)cc21` (centres unmarked) [Compound 343, N1-(1,3,3-trimethylindolin-6-yl)cyclohexane-1,4-diamine], with 0.1 to 100 nM. Compound `CC(C)(C)c1ccc(NC2CCC(CNC(=N)N)CC2)cc1` (centres unmarked) [Compound 344, 1-((4-((4-(tert-butyl)phenyl)amino)cyclohexyl)methyl)guanidine] yielded an EC50 of 0.1 to 100 nM. `CC(C)(C)c1ccc(N[C@@H]2C[C@H](N)C[C@H](N)C2)cc1` [Compound 345, (1s,3R,5S)-N1-(4-(tert-butyl)phenyl)cyclohexane-1,3,5-triamine]: the EC50 lay within 100 to 1000 nM. `Cn1cc(NCC2CCC(Nc3ccc(C(C)(C)C)cc3)CC2)cn1` (centres unmarked) [Compound 346, N-((4-((4-(tert-butyl)phenyl)amino)cyclohexyl)methyl)-1-methyl-1H-pyrazol-4-amine] came in with an EC50 of 0.1 to 100 nM.

Staying with this assay, now noted: Homo sapiens, ferroptosis inducer RSL3, 20 hours, ferroptosis inhibitory activity, Table 2.
Take `NC1CCC(Nc2ccc(C3CCC3)cc2)CC1` (centres unmarked) [Compound 318A, 1-N-(4-cyclobutylphenyl)cyclohexane-1,4-diamine]: the EC50 is 0.1 to 100 nM. The compound `CC(C)(C)c1ccc(NCCC2CCC(N)CC2)cc1` (centres unmarked) [Compound 336A, N-(2-(4-aminocyclohexyl)ethyl)-4-(tert-butyl)aniline] came in with an EC50 of 0.1 to 100 nM.
